pEC50: −log10 of the molar value.

The target in one experiment is T1, human S1P1 receptor (Homo sapiens, UniProt P21453).
T1 construct: expressed in transfected cells; membranes used
Briefly: GTP γ35S binding assay for S1P1 activity. Format: biochemical. The conditions noted are these: membranes of cells stably expressing S1P1 receptor, 30 min at 25° C. As to the method:
Compounds were synthesized and tested for S1P1 activity using the GTP γ^35S binding assay. These compounds may be assessed for their ability to activate or block activation of the human S1P1 receptor in cells stably expressing the S1P1 receptor.
GTP γ^35S binding was measured in the medium containing (mM) HEPES 25, pH 7.4, MgCl2 10, NaCl 100, dithitothreitol 0.5, digitonin 0.003%, 0.2 nM GTP γ^35S, and 5 μg membrane protein in a volume of 150 μl. Test compounds were included in the concentration range from 0.08 to 5,000 nM unless indicated otherwise. Membranes were incubated with 100 μM 5′-adenylylimmidodiphosphate for 30 min, and subsequently with 10 μM GDP for 10 min on ice. Drug solutions and membrane were mixed, and then reactions were initiated by adding GTP γ^35S and continued for 30 min at 25° C. Reaction mixtures were filtered over Whatman GF/B filters under vacuum, and washed three times with 3 mL of ice-cold buffer (HEPES 25, pH7.4, MgCl2 10 and NaCl 100). Filters were dried and mixed with scintillant, and counted for ^35S activity using a β-counter. Agonist-induced GTP γ^35S binding was obtained by subtracting that in the absence of agonist. Binding data were analyzed using a non-linear regression method. In case of antagonist assay, the reaction mixture contained 10 nM S1P in the presence of test antagonist at concentrations ranging from 0.08 to 5000 nM.
Background: Binding of GTPγS marks nucleotide exchange on a G protein.

For the next experiment, the system named is female C57BL6 mice. Briefly: Lymphopenia assay in mice. Conditions: after 5 hours, 10 mg/Kg subcutaneously, FIG. 1. The experiment is classed as in vivo. As to the method:
Test drugs are prepared in a solution containing 3% (w/v) 2-hydroxy propyl β-cyclodextrin (HPBCD) and 1% DMSO to a final concentration of 1 mg/ml, and subcutaneously injected to female C57BL6 mice (CHARLES RIVERS) weighing 20-25 g at the dose of 10 mg/Kg. Blood samples are obtained by puncturing the submandibular skin with a Goldenrod animal lancet at 5, 24, 48, 72, and 96 hrs post drug application. Blood is collected into microvettes (SARSTEDT) containing EDTA tripotassium salt. Lymphocytes in blood samples are counted using a HEMAVET Multispecies Hematology System, HEMAVET HV950FS (Drew Scientific Inc.). (Hale, J. et al Bioorg. & Med. Chem. Lett. 14 (2004) 3351).
A lymphopenia assay in mice; as previously described, was employed to measure the in vivo blood lymphocyte depletion after dosing with 1-{4-[(5-phenylpentyl)oxy]-3-(2-thienyl)benzyl}azetidine-3-carboxylic acid. This S1P1 agonist is useful for S1P-related diseases and exemplified by the lymphopenia in vivo response. […] Lymphocytes in blood samples were counted using a HEMAVET Multispecies Hematology System, HEMAVET HV950FS (Drew Scientific Inc.). […]

T1 sequence (P21453 whole entry): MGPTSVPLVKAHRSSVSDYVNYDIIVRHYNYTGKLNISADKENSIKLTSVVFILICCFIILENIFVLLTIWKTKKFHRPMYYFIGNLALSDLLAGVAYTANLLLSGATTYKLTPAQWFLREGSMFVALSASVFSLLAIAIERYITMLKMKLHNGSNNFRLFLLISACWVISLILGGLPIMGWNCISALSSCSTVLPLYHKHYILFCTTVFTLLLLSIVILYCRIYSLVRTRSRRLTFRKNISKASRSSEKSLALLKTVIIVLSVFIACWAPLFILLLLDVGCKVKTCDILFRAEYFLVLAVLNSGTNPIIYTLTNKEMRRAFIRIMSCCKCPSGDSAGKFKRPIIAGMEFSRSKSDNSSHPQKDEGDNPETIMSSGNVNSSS

In the case of `O=C(O)C1CN(Cc2ccc(OCCCCCc3ccccc3)c(-c3cccs3)c2)C1` [Compound 16, 1-{4-[(5-phenylpentyl)oxy]-3-(2-thienyl)benzyl}azetidine-3-carboxylic acid], the pEC50 (in general, the EC50 on a negative log10 scale, so that one unit is a factor of ten) on human S1P1 receptor is 7.82. For the same compound, in the experiment with female C57BL6 mice, the “lymphocyte count (number of lymphocytes 10^3/μL blood)” value is reported as < 1 10^3/μL blood.
On to `O=C(O)C1CC(NCc2ccc(OCCCCCc3ccccc3)c(-c3cccs3)c2)C1` (stereo not drawn) [Compound 28, 3-({4-[(5-phenylpentyl)oxy]-3-(2-thienyl)benzyl}amino)cyclobutanecarboxylic acid], for which the pEC50 on human S1P1 receptor is 7.82.
Still for that read-out and setting: the figure for `O=C(O)C1CN(Cc2ccc(OCCCCCc3ccccc3)c(C3=CCCC3)c2)C1` [Compound 15, 1-{3-cyclopent-1-en-1-yl-4-[(5-phenylpentyl)oxy]benzyl}azetidine-3-carboxylic acid] is 7.89; for `O=C(O)C1CN(Cc2ccc(SCCCCCc3ccccc3)c(-c3cccs3)c2)C1` [Compound 26, 1-{4-[(5-phenylpentyl)thio]-3-(2-thienyl)benzyl}azetidine-3-carboxylic acid] it is 6.74; for `O=C(O)C1CN(Cc2ccc(OCCCCCc3ccccc3)c(-n3cccn3)c2)C1` [Compound 25, 1-{4-[(5-phenylpentyl)oxy]-3-(1H-pyrazol-1-yl)benzyl}azetidine-3-carboxylic acid] it is 7.66.

For the origin of these results see US8653062B2, “Compounds as receptor modulators with therapeutic utility” (Allergan, Inc., priority 2009, dated 2014).
